Data published in patent US20010055753A1, “Method to regulate CD40 signaling” (National Jewish Medical and Research Center, priority 1995, published 2001).

Tests used:
p42^erk2 [1] = assay: ERK kinase assay with EGFR662-681 peptide substrate, Ramos cells; format: cell-based, human; conditions: 100 ng/ml PMA for 20 min, control about 10,000 cpm
Protocol: Kinase activity was evaluated using EGFRF662-681 peptide as a substrate as described previously (Franklin et al., J. Immunol. 153:4890-4898, 1994). Following stimulation, 10^6 cells were lysed in 75 μl of lysis buffer (70 mM β-glycerophosphate, pH 7.2, […], 2 mM MgCl2, 1 mM EGTA, 0.5% Triton X-100, 5 μg/ml leupeptin, 2 μg/ml aprotinin and 1 mM DTT) and placed on ice for 15 min. Cell lysates were centrifuged at 14,000 rpm for 10 min and 20 μl of supernatant were removed and mixed with 20 μl of 2×kinase buffer (50 mM β-glycerophosphate, pH 7.2, […], 20 mM MgCl2, […], 1 mM EGTA, 400 μM EGFR662-681 peptide, 200 μM ATP and 0.225 mCi/ml[γ-^32P] ATP [ICN Biochemicals, Costa Mesa, Calif.]). After 15 min at 30° C., 10 μl of 250 mM EDTA was added, and 45 μl of the reaction mixture was spotted onto P-81 phosphocellulose paper (Whatman, Clifton, N.J.). The papers were washed four times (5 min each) in 400 ml of 75 mM phosphoric acid and then radioactivity bound to the filter paper was determined by liquid scintillation counting.

p42^erk2 [2] = assay: Immunoblot with anti-ERK2 antibody (mobility shift) in Ramos cells; format: cell-based, human; conditions: PMA 100 ng/ml or anti-IgM 10 μg/ml, anti-CD40 5 μg/ml, 0-60 min
Protocol: The human Burkitt's lymphoma cell line Ramos was obtained from the American Type Culture Collection (Rockville, Md.), and cells were maintained in RPMI-1640 supplemented with 50 units/ml penicillin-streptomycin, 2 mM glutamine, and 10% FCS. Exponentially growing cells were used in all experiments.
About 1×10^6 Ramos cells were separately treated with 10 μg/ml anti-IgM F(ab′)2 goat anti-human IgM antibody (obtained from Zymed, San Francisco, Calif.) or 5 μg/ml anti-CD40 antibody (G28-5; obtained from Dr. E. A. Clark, Washington University, Seattle, Wash.) for 0, 1, 5, 15, 30 or 60 min. Ramos cells were also treated with phorbol 12-myristate 13-acetate (PMA; obtained from Sigma, St Louis, Mo.). Immunoblot analysis was performed on each of the samples using monoclonal anti-ERK2 antibody in the following method. The treated cells were lysed in 100 μl of lysis buffer (25 mM Tris-HCl, pH 7.6, 50 mM NaCl, 0.5% Na deoxycholate, 2% NP-40, 0.2% SDS, 1 mM PMSF, 50 μg/ml aprotinin, 50 μM leupeptin). Lysates were centrifuged for 10 min at 14,000 rpm in an Eppendorf microcentrifuge, 90 μl of supernatants were mixed with 30 μl of 4×Laemmli sample buffer. Samples were boiled for 5 min. Twenty μl of prepared samples were electrophoresed through a 12% SDS-PAGE gel, and proteins were transferred to nitrocellulose membranes. […]

p38 MAP kinase = assay: p38 immunoprecipitation kinase assay with ATF-2 (1-110), neutrophils; format: cell-based; conditions: 100 ng/ml LPS, varying time intervals
Protocol: Neutrophils isolated by the plasma percoll method as previously described (Haslett, C., Am. J. Pathol. 119, 101-110; 1985) were resuspended at about 25×10^6 cells/ml in KRPD containing 0.1% Human Heat Inactivated Platelet-Poor Plasma, 1 mM PMSF, 10, μg/ml leupeptin and 10 μg/ml aprotinin. About 25×10^6 PMN were preincubated for 30 minutes at 37° C., then stimulated with 100 ng/ml LPS for varying time intervals and reactions terminated by a 20 second centrifugation at 15,000 rpm. Cell pellets were lysed with 500 μl cold RIPA (50 mM Tris pH=7.2, 150 mM NaCl, 1.1% SDS, 0.1% sodium deoxycholate, 1% Triton-X-100, 10 mM sodium pyrophosphate, 25 mM M glycerophosphate, 1 mM sodium orthovanadate and 2.1 μg/ml aprotinin), and centrifuged at 15,000 for 10 minutes at 4° C. Triton soluble lysates were initial precleared with Protein A Sepharose for 30 minutes at 4° C., followed by Protein A Sepharose immunoprecipitation with 5 μl/sample polyclonal antibodies specific for p38 and 15 μl of bead suspension, for 120 minutes at 4° C. Beads were washed once in RIPA and twice in PAN (10 mM Pipes, 100 mM NaCl, pH=7.0, and 21 μg/ml aprotinin). […] Reactions were terminated with 2×Laemelli buffer and after boiling, proteins were separated by SDS-PAGE, with quantification of activity by autoradiography and phosphorimaging, and qualitative analysis of enzyme presence and phosphorylation by Western Blotting.

CCCCCCCCCCCCCC(=O)O[C@@H]1[C@@H](C)[C@@]2(O)[C@@H](C=C(CO)C[C@]3(O)C(=O)C(C)=C[C@@H]23)[C@@H]2C(C)(C)[C@]12OC(C)=O [PMA, phorbol 12-myristate 13-acetate]
kinase activity (32P incorporation into EGFR662-681 peptide) (p42^erk2 [1]): about 30,000 counts per minute
ERK2 mobility shift (bands reactive with anti-ERK2 antibody) (p42^erk2 [2]): a second band with immunoreactivity to anti-ERK2 antibody appeared

lipopolysaccharide
p38 MAP kinase activation (p38 MAP kinase): activated
